Measurements published in patent US3985884A, “Complement inhibitors” (American Cyanamid Company, priority 1975, dated 1976).
Where a name gives a salt, the structure may show the parent alone.

System: complement level
Test: Complement Level Reduction Test
Format: in vivo
Conditions: serum of dosed guinea pigs, undiluted serum capillary tube method, compared to undosed controls

O=C(Nc1ccc(-n2nc3ccc4cc(S(=O)(=O)O)cc(O)c4c3n2)c(S(=O)(=O)O)c1)Nc1ccc(-n2nc3ccc4cc(S(=O)(=O)O)cc(O)c4c3n2)c(S(=O)(=O)O)c1 [3,3'-Ureylenebis[6-(9-hydroxy-7-sulfo-2H-naphtho[1,2-d]triazol-2-yl)benzenesulfonic acid] tetrasodium salt]
% Reduction Complement, In Vivo: 42%
